Reference: patent US20070092577A1, “Dietary calcium for reducing the production of reactive oxygen species” (University of Tennessee Research Foundation, priority 2005, published 2007)

Key:
[1] = system: Mitochondrial potential in cultured wild-type 3T3-L1 adipocytes; assay: Mitochondrial membrane potential (JC-1); type: cell-based, murine; conditions: H2O2 100 nmol/L, 48 hours
Procedure: 3T3-L1 preadipocytes were incubated at a density of 8000 cells/cm^2 (10 cm^2 dish) and grown in Dulbecco's modified Eagle's medium (DMEM) containing 10% FBS and antibiotics (adipocyte medium) at 37° C. in 5% CO2 in air. Confluent preadipocytes were induced to differentiate with a standard differentiation medium consisting of DMEM-F 10 (1:1, vol/vol) medium supplemented with 1% FBS, 1 μM dexamethasone, IBMX (0.5 mM) and antibiotics (1% Penicillin-Streptomycin). Preadipocytes were maintained in this differentiation medium for 3 days and subsequently cultured in adipocyte medium. Cultures were re-fed every 2-3 days to allow 90% of cells to reach full differentiation before conducting chemical treatment. Chemicals were freshly diluted in adipocyte medium before treatment. […] Cell viability was measured via trypan blue exclusion.
Mitochondrial membrane potential was analyzed fluorometrically with a lipophilic cationic dye JC-1 (5,5′,6,6′-tetrachloro-1,1′,3,3′-tetraethylbenzimidazol carbocyanine iodide) using a mitochondrial potential detection kit (Biocarta, San Diego, Calif.). Mitochondrial potential was determined as the ratio of red fluorescence (excitation 550 nm, emission 600 mn) and green fluorescence (excitation 485 nm, emission 535 nm) using a fluorescence microplate reader.

MCP-1 = MCP-1 expression in 3T3-L1 adipocytes; type: cell-based, mouse; conditions: calcitriol 10 nmol/L, 48 hours
Procedure: (§1) RAW 264 macrophages and 3T3-L1 preadipocytes (American Type Culture Collection) were incubated at a density of 8000 cells/cm2 (10 cm2 dish) and grown in Dulbecco's modified Eagle's medium (DMEM) containing 10% FBS and antibiotics (adipocyte medium) at 37° C. in 5% CO2 in air. Confluent 3T3-L1 preadipocytes were induced to differentiate with a standard differentiation medium consisting of DMEM-F10 (1:1, vol/vol) medium supplemented with 1% FBS, 1 μM dexamethasone, IBMX (0.5 mM) and antibiotics (1% Penicillin-Streptomycin). Preadipocytes were maintained in this differentiation medium for 3 days and subsequently cultured in adipocyte medium. […]
(§2) Cells were washed with fresh adipocyte medium, re-fed with medium containing the indicated treatments, and incubated at 37° C. in 5% CO2 for 48 hours before analysis. Cell viability was measured via trypan blue exclusion.
(§3) Adipocyte and muscle 18s, CD14, TNFα, MIP, M-CSF, IL-6 and MCP-1 were quantitatively measured using a Smart Cycler Real Time PCR System (Cepheid, Sunnyvale, Calif.) with a TaqMan 1000 Core Reagent Kit (Applied Biosystems, Branchburg, N.J.). […] Reactions of quantitative RT-PCR for standards and unknown samples were also performed according to the instructions of Smart Cycler System (Cepheid, Sunnyvale, Calif.) and TaqMan Real Time PCR Core Kit (Applied Biosystems, Branchburg, N.J.). […]

IL-15 = IL-15 expression in differentiated Zen-bio human adipocytes; type: cell-based; conditions: 10 nmol/L 1α, 25-(OH)2-D3 or 10 μmol/L nifedipine, 48 h; p=0.473
Procedure: (§4) Human pre-adipocytes used in this study were supplied by Zen-Bio (Research Triangle, N.C.). […] The cells are isolated from the stromal vascular fraction of human subcutaneous adipose tissue and differentiated in vitro as follows: […] Preadipocytes were maintained in this differentiation medium for 3 days and subsequently cultured in adipocyte medium in which BRL49653 and MIX were omitted. Cultures were re-fed every 2-3 days till fully differentiated. Cells were incubated in serum free medium overnight before chemical treatment. Chemicals were freshly diluted in adipocyte medium before treatment. […] Cell viability was measured via trypan blue exclusion. Adipocyte and muscle 18s, TNFα, IL-6, IL-8, IL-15 and adiponectin were quantitatively measured using a smart cycler real-time PCR system (Cepheid, Sunnyvale, Calif.) with a TaqMan 1000 Core Reagent Kit (Applied Biosystems, Branchburg, N.J.). […] Reactions of quantitative RT-PCR for standards and unknown samples were also performed according to the instructions of Smart Cycler System (Cepheid, Sunnyvale, Calif.) and TaqMan Real Time PCR Core Kit (Applied Biosystems, Branchburg, N.J.). The mRNA quantitation for each sample was further normalized using the corresponding 18s quantitation.

MIF = MIF expression in mouse (3T3-L1) adipocytes; type: cell-based; conditions: calcitriol 10 nmol/L, 48 hours
Procedure: as §1, §2, §3

adiponectin = assay: Adiponectin expression in differentiated Zen-bio human adipocytes; type: cell-based; conditions: 10 nmol/L 1α, 25-(OH)2-D3 or 10 μmol/L nifedipine, 48 h; p=0.377
Procedure: as §4

TNFα = TNFα expression in RAW 264 macrophages; type: cell-based
Procedure: RAW 264 macrophages and 3T3-L1 preadipocytes (American Type Culture Collection) were incubated at a density of 8000 cells/cm2 (10 cm2 dish) and grown in Dulbecco's modified Eagle's medium (DMEM) containing 10% FBS and antibiotics (adipocyte medium) at 37° C. in 5% CO2 in air. Confluent 3T3-L1 preadipocytes were induced to differentiate with a standard differentiation medium consisting of DMEM-F10 (1:1, vol/vol) medium supplemented with 1% FBS, 1 μM dexamethasone, IBMX (0.5 mM) and antibiotics (1% Penicillin-Streptomycin). Preadipocytes were maintained in this differentiation medium for 3 days and subsequently cultured in adipocyte medium. Cultures were re-fed every 2-3 days to allow 90% cells to reach fully differentiation for 3T3-L1 adipocytes or grow to a confluence for RAW 264 before conducting chemical treatment.
Human adipocytes (Zen-Bio, Inc.), 3T3-L1 adipocytes, RAW264 macrophages were obtained and co-cultured by using transwell inserts with 0.4 μm porous membranes (Corning) to separate adipocytes and macrophages. All data are expressed as mean±SEM. Data were evaluated for statistical significance by analysis of one-way or two-way variance (ANOVA; means with different letter differ, p<0.05).
Adipocyte and muscle 18s, CD14, TNFα, MIP, M-CSF, IL-6 and MCP-1 were quantitatively measured using a Smart Cycler Real Time PCR System (Cepheid, Sunnyvale, Calif.) with a TaqMan 1000 Core Reagent Kit (Applied Biosystems, Branchburg, N.J.). The primers and probe sets were obtained from Applied Biosystems TaqMan® Assays-on-Demand™ Gene Expression primers and probe set collection according to manufacture's instruction. […] Reactions of quantitative RT-PCR for standards and unknown samples were also performed according to the instructions of Smart Cycler System (Cepheid, Sunnyvale, Calif.) and TaqMan Real Time PCR Core Kit (Applied Biosystems, Branchburg, N.J.). The mRNA quantitation for each sample was further normalized using the corresponding 18s quantitation.

IL-8 = IL-8 expression in differentiated Zen-bio human adipocytes; type: cell-based; conditions: 10 nmol/L, 48 h; p<0.001
Procedure: as §4

MIP = MIP expression in 3T3-L1 adipocytes; type: cell-based, mouse; conditions: calcitriol 10 nmol/L, 48 hours
Procedure: as §1, §2, §3

M-CSF = M-CSF expression in 3T3-L1 adipocytes; type: cell-based, mouse; conditions: calcitriol 10 nmol/L, 48 hours
Procedure: as §1
Cell viability was measured via trypan blue exclusion.
Adipocyte and muscle 18s, CD14, TNFα, MIP, M-CSF, IL-6 and MCP-1 were quantitatively measured using a Smart Cycler Real Time PCR System (Cepheid, Sunnyvale, Calif.) with a TaqMan 1000 Core Reagent Kit (Applied Biosystems, Branchburg, N.J.). […] Reactions of quantitative RT-PCR for standards and unknown samples were also performed according to the instructions of Smart Cycler System (Cepheid, Sunnyvale, Calif.) and TaqMan Real Time PCR Core Kit (Applied Biosystems, Branchburg, N.J.). The mRNA quantitation for each sample was further normalized using the corresponding 18s quantitation.

Row | Compound | increase of mitochondrial potential [1] [%] | effect on MCP-1 expression (MCP-1) | effect on IL-15 expression (IL-15) | increase of MIF expression (MIF) [%] | effect on adiponectin expression (adiponectin) | effect on TNFα expression in macrophages in co-culture (TNFα; co-culture with differentiated 3T3-L1 adipocytes) | stimulation of TNFα expression (TNFα; macrophages cultured alone, calcitriol 10 nmol/L, 48 hours) [%] | stimulation of IL-8 expression (IL-8) [%] | effect on MIP expression (MIP) | effect on M-CSF expression (M-CSF)
1 | OO [H2O2, hydrogen peroxide] | 72 | – | – | – | – | – | – | – | – | –
2 | C=C1/C(=C\C=C2/CCC[C@]3(C)[C@@H]([C@H](C)CCCC(C)(C)O)CC[C@@H]23)C[C@@H](O)C[C@@H]1O [calcitriol, 1, 25-Dihydroxyvitamin D] | – | markedly stimulate | no effect | 50 | no effect | further enhanced | 91 | 49 | markedly stimulate | markedly stimulate
